Converted amounts (≈) assume the structure as drawn. Like-named read-outs stand apart in the source and are kept apart here.
What was measured:
Type in all cases: cell-based
[1] = tested on: Streptococcus mutans JCM 5175; test: MIC by agar plate dilution method, Su-1; conditions: for MIC: Streptococcus mutans, read-out: MIC Su-1 (caries-related bacteria)
Experimental: (§1) The minimum inhibitory activities of the antimicrobial flavors of the invention on anaerobic oral bacteria were measured by an agar plate dilution method.
(§2) All the test strains were obtained from Riken (The Institute of Physical and Chemical Research). The names and abbreviations of the strains are shown in Table 1 below (The abbreviations are used in the following description).
(§3) Each test microorganism kept frozen (−80° C.) in glycerol at a concentration of 25% was thawed. A 100 μl portion of the suspension was inoculated into 10 ml of a liquid medium. A Gifu university anaerobic medium (GAM) (Nissui Pharmaceutical Co., Ltd) having added thereto Hemin (Tokyo Kasei) and Menadione (Sigma) was used for Su-1 and Fn-1. Schaedler Broth (BBL) having added thereto Hemin and Menadione was used for the other strains. The culture was anaerobically incubated at 37° C. for 72 hours by using BBL Gas Pack Anaerobic System. After the cultivation, the microbial cell suspension of Su-1 was 10-fold diluted to prepare an inoculum. The cultures of Fn-1 and Pg-1 were used as such as an inoculum. The cultures of Pt-1, Aa-1, and Av-1 were subjected to centrifugation, and the separated microbial cells were suspended in 2 ml of sterilized physiological saline to prepare the respective inoculums.
(§4) An agar medium prepared by adding 2% agar (Difco), Hemin, and Menadione to Trypticase Soy Broth (BBL) was used. A test sample (antimicrobial flavor) was dissolved in ethanol to prepare 2-fold serial dilutions. To 10 ml of the agar medium was added 100 μl of each dilution and stirred well. The agar medium was transferred to a petri dish (diameter: 9 cm) and solidified at room temperature. The solidified agar medium was inoculated with 5 μl of the inoculum by means of a multipoint inoculator (Microplanter MIT-P27, supplied by Sakuma Seisakusho), followed by culturing at 37° C. for 72 hours under anaerobic conditions. The growth of the test microorganism was compared with a blank petri dish (the agar medium to which 100 μl of ethanol had been added). The lowest sample concentration that inhibited growth was taken as MIC (ppm).
(§5) Antimicrobial activities (MIC; ppm) of the aromahygiene base (AHB) prepared in (1) and the antimicrobial flavor compositions prepared in (2) (Examples 2-1 to 2-3) and Comparative Examples 2-1 to 2-3 were measured in the same manner as in Example 1 (2).

[2] = tested on: Actinomyces naeslundii JCM 8350; test: MIC by agar plate dilution method, Aa-1; conditions: for MIC: Actinomyces naeslundii, read-out: MIC Aa-1 (caries-related bacteria)
Experimental: as §1, §2, §3, §4, §5

[3] = tested on: Actinomyces viscosus JCM 8352; test: MIC by agar plate dilution method, Av-1; conditions: for MIC: Actinomyces viscosus, read-out: MIC Av-1 (caries-related bacteria)
Experimental: as §1, §2, §3, §4, §5

[4] = tested on: Fusobacterium nucleatum JCM 6328; test: MIC by agar plate dilution method, Fn-1; conditions: for MIC: Fusobacterium nucleatum, read-out: MIC Fn-1 (paradentosis-related bacteria)
Experimental: as §1, §2, §3, §4, §5

[5] = tested on: Porphyromonas gingivalis JCM 8525; test: MIC by agar plate dilution method, Pg-1; conditions: for MIC: Porphyromonas gingivalis, read-out: MIC Pg-1 (paradentosis-related bacteria; head Fg-1 in Tables 2 and 3)
Experimental: as §1, §2, §3, §4, §5

[6] = tested on: Prevotella intermedia JCM 6322; test: MIC by agar plate dilution method, Pt-1; conditions: for MIC: Prevotella intermedia, read-out: MIC Pt-1 (paradentosis-related bacteria)
Experimental: as §1, §2, §3, §4, §5

[7] = agar medium, 37° C., 72 hours, anaerobic conditions
[8] = JCM5175, agar medium, 37° C., 72 hours, anaerobic conditions
[9] = JCM8350, agar medium, 37° C., 72 hours, anaerobic conditions
[10] = JCM8352, agar medium, 37° C., 72 hours, anaerobic conditions
[11] = JCM6328, agar medium, 37° C., 72 hours, anaerobic conditions
[12] = JCM8525, agar medium, 37° C., 72 hours, anaerobic conditions
[13] = JCM6322, agar medium, 37° C., 72 hours, anaerobic conditions

| Molecule | MIC Su-1 (caries-related bacteria) [1, 7] [ppm] | MIC Aa-1 (caries-related bacteria) [2, 7] [ppm] | MIC Av-1 (caries-related bacteria) [3, 7] [ppm] | MIC Fn-1 (paradentosis-related bacteria) [4, 7] [ppm] | MIC Pg-1 (paradentosis-related bacteria; head Fg-1 in Tables 2 and 3) [5, 7] [ppm] | MIC Pt-1 (paradentosis-related bacteria) [6, 7] [ppm] | MIC [1, 8] [µg/mL] | MIC [2, 9] [µg/mL] | MIC [3, 10] [µg/mL] | MIC [4, 11] [µg/mL] | MIC [5, 12] [µg/mL] | MIC [6, 13] [µg/mL] | also measured |
| --- | --- | --- | --- | --- | --- | --- | --- | --- | --- | --- | --- | --- | --- |
| Isocamphylcyclohexanol | 31.3 | 31.3 | 31.3 | 31.3 | 3.9 | 3.9 | – | – | – | – | – | – | – |
| O=C1CCCCCCCCCCC(=O)OCCO1 [Ethylenedodecanedioate] | >1000 | >1000 | 250 | >1000 | 31.3 | >1000 | – | – | – | – | – | – | – |
| CCCCCCCCC(C)C=O (stereo not drawn) [2-Methyl decanal] | – | – | – | – | – | – | 500 (≈ 2940 µM) | 250 (≈ 1470 µM) | 500 (≈ 2940 µM) | 500 (≈ 2940 µM) | 62.5 (≈ 367 µM) | 125 (≈ 734 µM) | – |
| C=CCCCCCCCCO [9-decen-1-ol] | – | – | – | – | – | – | 1000 (≈ 6400 µM) | 250 (≈ 1600 µM) | 250 (≈ 1600 µM) | 250 (≈ 1600 µM) | 125 (≈ 800 µM) | 62.5 (≈ 400 µM) | – |
| CC(=O)O[C@]1(C)CC[C@@]23C[C@@H]1C(C)(C)[C@@H]2CC[C@H]3C [Cedryl acetate] | – | – | – | – | – | – | – | – | – | – | – | – | MIC ([1]; JCM5175, 72 h): > 1000 µg/mL; MIC ([2]; JCM8350, 72 h): > 1000 µg/mL; MIC ([3]; JCM8352, 72 h): > 1000 µg/mL; MIC ([4]; JCM6328, 72 h): > 1000 µg/mL; MIC ([5]; JCM8525, 72 h): 31.3 µg/mL; MIC ([6]; JCM6322, 72 h): 62.5 µg/mL |
| CCCCCCCCCO [1-nonanol] | – | – | – | – | – | – | 1000 (≈ 6930 µM) | 500 (≈ 3470 µM) | 500 (≈ 3470 µM) | 500 (≈ 3470 µM) | 250 (≈ 1730 µM) | 250 (≈ 1730 µM) | – |
| CC/C(=C\C[C@H]1CC=C(C)C1(C)C)CO [Levosandol] | 125 | 62.5 | 62.5 | 62.5 | 31.3 | 31.3 | – | – | – | – | – | – | – |
| C=CC(C)(O)CC/C=C(\C)CCC=C(C)C (stereo not drawn) [Neroridol] | 500 | 125 | 125 | 50 | 31.3 | 31.3 | – | – | – | – | – | – | – |
| C=CCCCCCCCCCO [10-undecen-1-ol] | – | – | – | – | – | – | 250 (≈ 1470 µM) | 125 (≈ 734 µM) | 125 (≈ 734 µM) | 125 (≈ 734 µM) | 31.3 (≈ 184 µM) | 31.3 (≈ 184 µM) | – |
| O=CCc1ccccc1 [Phenylacetaldehyde] | – | – | – | – | – | – | > 1000 | 500 (≈ 4160 µM) | 250 (≈ 2080 µM) | 1000 (≈ 8320 µM) | – | 15.6 (≈ 130 µM) | MIC ([5]; JCM8525, 72 h): 15.6 µg/mL (≈ 130 µM) |
| CC1C(C)(C)C2=C(C(=O)CCC2)C1(C)C (stereo not drawn) [Cashmerane] | >1000 | 1000 | 1000 | >1000 | 250 | 250 | – | – | – | – | – | – | – |
| CCCCCCCCCC(C)C=O (stereo not drawn) [2-Methyl undecanal] | – | – | – | – | – | – | 250 (≈ 1360 µM) | 125 (≈ 678 µM) | 125 (≈ 678 µM) | 125 (≈ 678 µM) | 62.5 (≈ 339 µM) | 62.5 (≈ 339 µM) | – |
| CC(C)=CCC/C(C)=C/CCC(C)CCO (stereo not drawn) [Dihydrofarnesol] | 31.3 | 31.3 | 62.5 | 31.3 | 7.8 | 7.8 | – | – | – | – | – | – | – |
| CC(=O)c1cc2c(cc1C)C(C)(C)C(C)C2(C)C (stereo not drawn) [Phantolid] | >1000 | >1000 | >1000 | >1000 | 31.3 | 62.5 | – | – | – | – | – | – | – |
